Measurements as given in patent US20090233796A1, “HERBICIDAL COMPOSITION” (SYNGENTA CROP PROTECTION, INC., priority 2004, published 2009).

Tests used:
Assay type in all cases: in vivo
IPOMOEA SP. = assay: Compound (A) with nicosulfuron, weed plots; conditions: 5 DAA, No. 3.10
Protocol: (§1) In these tests, various weeds were treated with nicosulfuron alone at a rate equivalent to 35 g per hectare, […] and Compound (A) at rates equivalent to the sum of these. The compositions were formulated as an emulsifyable concentrate (EC).
(§2) The results in the table under each application are the percentage of the plants that were killed.

C[…]. = assay: Compound (A) with nicosulfuron, weed plots; conditions: 5 DAA, No. 3.8
Protocol: as §1, §2

AMBROSIA TRIFIDA = assay: Compound (A) with nicosulfuron, weed plots; conditions: 28 DAA, No. 3.15
Protocol: as §1, §2

SETARIA SP. [1] = assay: Compound (A) with nicosulfuron, weed plots; conditions: 21 DAA, No. 3.4
Protocol: as §1, §2

SETARIA VIRIDIS [2] = assay: Compound (A) with nicosulfuron, weed plots; conditions: 4 DAA, No. 3.11
Protocol: as §1, §2

ABUTILON THEOPHRASTI = assay: Compound (A) with nicosulfuron, weed plots; conditions: 27 DAA, No. 3.13
Protocol: as §1, §2

[…] = Compound (A) with nicosulfuron, weed plots; conditions: 58 DAA, No. 3.12
Protocol: as §1, §2

BRACHIARIA PLATYPHYLLA = assay: Compound (A) with nicosulfuron, weed plots
Protocol: as §1, §2

DIGITARIA SANGUINALIS = assay: Compound (A) with nicosulfuron, weed plots
Protocol: as §1, §2

SESBANIA EXALTATA = assay: Compound (A) with nicosulfuron, weed plots
Protocol: as §1, §2

CYPERUS ESCULENTUS = assay: Compound (A) with nicosulfuron, weed plots
Protocol: as §1, §2

Galium = assay: Compound (A) with prosulfuron, weed plots; conditions: 13 DAA, No. 3.24
Description: In these tests, […] and Compound (A) at rates equivalent to the sum of these. The compositions were formulated as an emulsifiable concentrate (EC).
The results in the tables under each application are the percentage of the plants that were killed.

LAMIUM PURPUREUM = assay: Compound (A) with paraquat, weed plots; conditions: 2 DAA, No. 1.5
Protocol: (§3) In these tests, various weeds were treated with paraquat alone at rates equivalent to 700 g per hectare and 840 g per hectare, compound (A) alone at rates equivalent to 10 g per hectare and 20 g per hectare, and with a mixture of paraquat and compound (A) at rates equivalent to the sum of these. The compositions were formulated as an emulsifyable concentrate (EC).
(§4) The results in the table under each application are the percentage of the weeds plants that were killed.

DIGITARIA CILIARIS = assay: Compound (A) with paraquat, weed plots; conditions: 20 g/ha; 51 DAA; No. 1.7
Protocol: as §3, §4

SETARIA SP. [3] = assay: Compound (A) with paraquat, weed plots; conditions: 27 DAA, No. 1.2
Protocol: as §3, §4

SETARIA VIRIDIS [4] = assay: Compound (A) with paraquat, weed plots; conditions: 43 DAA, No. 1.3
Protocol: as §3, §4

LOLIUM RIGIDUM = assay: Compound (A) with paraquat, weed plots; conditions: 41 DAA, No. 1.4
Protocol: as §3, §4

CYPERUS ROTUNDUS = assay: Compound (A) with paraquat, weed plots; conditions: 56 DAA, No. 1.11
Protocol: as §3, §4

CONYZA SP. = assay: Compound (A) with paraquat, weed plots; conditions: 5 DAA
Protocol: as §3, §4

VERONICA PERSICA = assay: Compound (A) with paraquat, weed plots; conditions: 69 DAA, No. 1.6
Protocol: as §3, §4

SONCHUS ASPER = assay: Compound (A) with paraquat, weed plots; conditions: 32 DAA, No. 1.10
Protocol: as §3, §4

E[…]-GALLI = assay: Compound (A) with paraquat, weed plots; conditions: 51 DAA, No. 1.8
Protocol: as §3, §4

CCOC(=O)COc1ncccc1Oc1cc(-n2c(=O)cc(C(F)(F)F)n(C)c2=O)c(F)cc1Cl [Compound (A)]
percentage of the plants that were killed (IPOMOEA SP.; 5 g/ha): 30%
percentage of the plants that were killed (IPOMOEA SP.; 10 g/ha): 80%
percentage of the plants that were killed (IPOMOEA SP.; 20 g/ha): 95%
percentage of the plants that were killed (C[…].; 5 g/ha): 20%
percentage of the plants that were killed (C[…].; 10 g/ha): 30%
percentage of the plants that were killed (C[…].; 20 g/ha): 95%
percentage of the plants that were killed (AMBROSIA TRIFIDA; 5 g/ha): 50%
percentage of the plants that were killed (AMBROSIA TRIFIDA; 10 g/ha): 50%
percentage of the plants that were killed (AMBROSIA TRIFIDA; 20 g/ha): 60%
percentage of the plants that were killed (SETARIA SP. [1]; 5 g/ha): 50%
percentage of the plants that were killed (SETARIA SP. [1]; 10 g/ha): 80%
percentage of the plants that were killed (SETARIA SP. [1]; 20 g/ha): 93%
percentage of the plants that were killed (SETARIA VIRIDIS [2]; 5 g/ha): 40%
percentage of the plants that were killed (SETARIA VIRIDIS [2]; 10 g/ha): 70%
percentage of the plants that were killed (SETARIA VIRIDIS [2]; 20 g/ha): 85%
percentage of the plants that were killed (ABUTILON THEOPHRASTI; 5 g/ha): 0%
percentage of the plants that were killed (ABUTILON THEOPHRASTI; 10 g/ha): 98%
percentage of the plants that were killed (ABUTILON THEOPHRASTI; 20 g/ha): 99%
percentage of the plants that were killed ([…]; 5 g/ha): 50%
percentage of the plants that were killed ([…]; 10 g/ha): 70%
percentage of the plants that were killed ([…]; 20 g/ha): 97%
percentage of the plants that were killed (BRACHIARIA PLATYPHYLLA; 5 g/ha, 24 DAA, No. 3.16): 0%
percentage of the plants that were killed (BRACHIARIA PLATYPHYLLA; 5 g/ha, 30 DAA, No. 3.17): 0%
percentage of the plants that were killed (BRACHIARIA PLATYPHYLLA; 10 g/ha, 24 DAA, No. 3.16): 0%
percentage of the plants that were killed (BRACHIARIA PLATYPHYLLA; 10 g/ha, 30 DAA, No. 3.17): 0%
percentage of the plants that were killed (BRACHIARIA PLATYPHYLLA; 20 g/ha, 24 DAA, No. 3.16): 0%
percentage of the plants that were killed (BRACHIARIA PLATYPHYLLA; 20 g/ha, 30 DAA, No. 3.17): 0%
percentage of the plants that were killed (DIGITARIA SANGUINALIS; 5 g/ha, 4 DAA, No. 3.6): 20%
percentage of the plants that were killed (DIGITARIA SANGUINALIS; 5 g/ha, 5 DAA, No. 3.14): 25%
percentage of the plants that were killed (DIGITARIA SANGUINALIS; 5 g/ha, 21 DAA, No. 3.5): 50%
percentage of the plants that were killed (DIGITARIA SANGUINALIS; 10 g/ha, 4 DAA, No. 3.6): 90%
percentage of the plants that were killed (DIGITARIA SANGUINALIS; 10 g/ha, 5 DAA, No. 3.14): 50%
percentage of the plants that were killed (DIGITARIA SANGUINALIS; 10 g/ha, 21 DAA, No. 3.5): 80%
percentage of the plants that were killed (DIGITARIA SANGUINALIS; 20 g/ha, 4 DAA, No. 3.6): 98%
percentage of the plants that were killed (DIGITARIA SANGUINALIS; 20 g/ha, 5 DAA, No. 3.14): 99%
percentage of the plants that were killed (DIGITARIA SANGUINALIS; 20 g/ha, 21 DAA, No. 3.5): 93%
percentage of the plants that were killed (SESBANIA EXALTATA; 5 g/ha, 44 DAA, No. 3.3): 75%
percentage of the plants that were killed (SESBANIA EXALTATA; 5 g/ha, 45 DAA, No. 3.2): 65%
percentage of the plants that were killed (SESBANIA EXALTATA; 10 g/ha, 44 DAA, No. 3.3): 85%
percentage of the plants that were killed (SESBANIA EXALTATA; 10 g/ha, 45 DAA, No. 3.2): 85%
percentage of the plants that were killed (SESBANIA EXALTATA; 20 g/ha, 44 DAA, No. 3.3): 90%
percentage of the plants that were killed (SESBANIA EXALTATA; 20 g/ha, 45 DAA, No. 3.2): 90%
percentage of the plants that were killed (CYPERUS ESCULENTUS; 5 g/ha, 7 DAA, No. 3.7): 40%
percentage of the plants that were killed (CYPERUS ESCULENTUS; 5 g/ha, 12 DAA, No. 3.9): 0%
percentage of the plants that were killed (CYPERUS ESCULENTUS; 10 g/ha, 7 DAA, No. 3.7): 60%
percentage of the plants that were killed (CYPERUS ESCULENTUS; 10 g/ha, 12 DAA, No. 3.9): 0%
percentage of the plants that were killed (CYPERUS ESCULENTUS; 20 g/ha, 7 DAA, No. 3.7): 60%
percentage of the plants that were killed (CYPERUS ESCULENTUS; 20 g/ha, 12 DAA, No. 3.9): 30%
percentage of the plants that were killed (Galium; 1.25 g/ha): 50%
percentage of the plants that were killed (Galium; 2.5 g/ha): 50%
percentage of the plants that were killed (Galium; 5 g/ha): 100%
percentage of the weeds plants that were killed (LAMIUM PURPUREUM; 10 g/ha): 30%
percentage of the weeds plants that were killed (LAMIUM PURPUREUM; 20 g/ha): 33%
percentage of the weeds plants that were killed (DIGITARIA CILIARIS): 0%
percentage of the weeds plants that were killed (SETARIA SP. [3]; 10 g/ha): 0%
percentage of the weeds plants that were killed (SETARIA SP. [3]; 20 g/ha): 25%
percentage of the weeds plants that were killed (SETARIA VIRIDIS [4]; 10 g/ha): 0%
percentage of the weeds plants that were killed (SETARIA VIRIDIS [4]; 20 g/ha): 23%
percentage of the weeds plants that were killed (LOLIUM RIGIDUM; 10 g/ha): 27%
percentage of the weeds plants that were killed (LOLIUM RIGIDUM; 20 g/ha): 47%
percentage of the weeds plants that were killed (CYPERUS ROTUNDUS; 10 g/ha): 0%
percentage of the weeds plants that were killed (CYPERUS ROTUNDUS; 20 g/ha): 0%
percentage of the weeds plants that were killed (CONYZA SP.; 10 g/ha, No. 1.1): 37%
percentage of the weeds plants that were killed (CONYZA SP.; 10 g/ha, No. 1.9): 37%
percentage of the weeds plants that were killed (CONYZA SP.; 20 g/ha, No. 1.1): 40%
percentage of the weeds plants that were killed (CONYZA SP.; 20 g/ha, No. 1.9): 40%
percentage of the weeds plants that were killed (VERONICA PERSICA; 10 g/ha): 25%
percentage of the weeds plants that were killed (VERONICA PERSICA; 20 g/ha): 100%
percentage of the weeds plants that were killed (SONCHUS ASPER; 10 g/ha): 60%
percentage of the weeds plants that were killed (SONCHUS ASPER; 20 g/ha): 55%
percentage of the weeds plants that were killed (E[…]-GALLI; 10 g/ha): 0%
percentage of the weeds plants that were killed (E[…]-GALLI; 20 g/ha): 0%
